The target in data set [1] is T1, human NHE-1 (Homo sapiens, UniProt P19634).
T1 construct: expressed in transfected cells
Briefly: NHE-1 inhibition, FLIPR assay of pHi recovery in transfected cell lines. It counts as cell-based. As to conditions: transfected LAP-1 cell line expressing human NHE-1, read-out: NHE1 inhibition IC50. The procedure:
Determination of the NHE Inhibition
The inhibitory concentration IC50 for NHE-1 inhibition was determined as follows:
IC50 for NHE-1 inhibition was determined in an FLIPR assay by measurement of the pHi recovery in transfected cell lines which express human NHE-1.
The assay was carried out in an FLIPR (fluorometric imaging plate reader) with black-walled 96-well microtiter plates with clear bases.
The growth medium for the transfected cells (Iscove+10% fetal calf serum) additionally contained G418 as selection antibiotic in order to ensure the presence of the transfected sequences.
The actual assay started with the removal of the growth medium and addition of 100 μl of loading buffer per well (5 μM BCECF-AM [2′,7′-bis(carboxyethyl)-5- (and -6-)carboxyfluorescein, acetoxymethyl ester] in 20 mM NH4Cl, 115 mM choline chloride, 1 mM MgCl2, 1 mM CaCl2, 5 mM KCl, 20 mM HEPES, 5 mM glucose; pH 7.4 [adjusted with KOH]). The cells were then incubated at 37° C. for 20 minutes. This incubation led to loading of the cells with the fluorescent dye whose fluorescence intensity depends on pHi, and with NH4Cl which made the cells slightly alkaline.
The nonfluorescent dye precursor BCECF-AM is, as ester, membrane-permeable. The actual dye BCECF is not membrane-permeable but is liberated inside cells by esterases.
After this incubation for 20 minutes, the loading buffer which contained NH4Cl and free BCECF-AM was removed by washing three times in a cell washer (Tecan Columbus) with in each case 400 μl of washing buffer (133.8 mM choline chloride, 4.7 mM KCl, 1.25 mM MgCl2, 1.25 mM CaCl2, 0.97 mM K2HPO4, 0.23 mM KH2PO4, 5 mM HEPES, 5 mM glucose pH 7.4 [adjusted with KOH]). The residual volume which remained in the wells was 90 μl (50-125 μl possible). This washing step removed the free BCECF-AM and resulted, as a consequence of the removal of the external NH4^+ ions, in intracellular acidification (˜pHi 6.3-6.4).
This may eventually lead to cell death if it persists long enough.
It was important at this point that the washing buffer was sodium-free (<1 mM) because extracellular sodium ions would lead to an instantaneous recovery of the pHi through the activity of the cloned NHE isoforms. It was likewise important for all the buffers used (loading buffer, washing buffer, recovery buffer) not to contain any HCO3^− ions, because the presence of bicarbonate would lead to activation of interfering bicarbonate-dependent pHi regulatory systems present in the parental LAP-1 cell line.
The microtiter plates with the acidified cells were then (up to 20 minutes after the acidification) transferred to the FLIPR. In the FLIPR, the intracellular fluorescent dye was excited by light with a wavelength of 488 nm generated by an argon laser, and the measured parameters (laser power, illumination time and aperture of the CCD camera incorporated in the FLIPR) were chosen so that the average fluorescence signal per well was between 30 000 and 35 000 relative fluorescence units.
The actual measurement in the FLIPR started with a photograph being taken by the CCD camera every two seconds under software control. After ten seconds, the recovery of the intracellular pH was initiated by adding 90 μl of recovery buffer (133.8 mM NaCl, 4.7 mM KCl, 1.25 mM MgCl2, 1.25 mM CaCl2, 0.97 mM K2HPO4, 0.23 mM KH2PO4, 10 mM HEPES, 5 mM glucose; pH 7.4 [adjusted with NaOH]) by means of the 96-well pipettor incorporated in the FLIPR.
Positive control wells (100% NHE activity) were those to which pure recovery buffer is added, while negative controls (0% NHE activity) received washing buffer. Recovery buffer with twice the concentration of test substance was added to all the other wells. Measurement in the FLIPR terminated after 60 measurements (two minutes).
The raw data are exported into the ActivityBase program. This program firstly calculates the NHE activities for each tested substance concentration and, from these, the IC50 values for the substances. […]

The nature of data set [2]: In vivo pharmacokinetics, "n in one method", i.v. bolus in beagle dog. As to conditions: iv; fasting male beagle dog, single i.v. bolus into jugular vein, about 1 mg/kg, plasma, co-administered (n in one). The procedure: In vivo pharmacokinetics—profiling with the “n in one method”
The exposure data and the half-life were determined as characteristic pharmacokinetic data as follows:
The NHE-1 inhibitor of Example 9 of the invention and, as reference substance, the known NHE-1 inhibitor cariporide with the formula
[drawing 23] were dissolved in an aqueous, slightly acidic medium (water, pH 4, adjusted with 1M hydrochloric acid). The concentration of the aqueous formulation prepared in this way was about 1.5 mg of each substance per 1 g of solution. 10 ml of this formulation were administered as a single bolus by catheter into the jugular vein of a fasting male beagle dog (dose about 1 mg of each substance administered per kg of the dog's body weight). […]
The plasma samples were worked up and, after an HPLC separation, quantified by MS/MS. […] The exposures could be calculated using the WinNonlin computer program from the concentration-time plots (see FIG. 1) and compared with the exposure of the known NHE-1 reference substance. Since the various substances were measured in the same animal at the same time, the result was an accurate comparison of the compounds, and a ranking of the volumes of distribution was possible.

Molecules are shown by their SMILES. Counter-ions that a name gives are not always drawn.

T1 sequence (P19634 whole entry): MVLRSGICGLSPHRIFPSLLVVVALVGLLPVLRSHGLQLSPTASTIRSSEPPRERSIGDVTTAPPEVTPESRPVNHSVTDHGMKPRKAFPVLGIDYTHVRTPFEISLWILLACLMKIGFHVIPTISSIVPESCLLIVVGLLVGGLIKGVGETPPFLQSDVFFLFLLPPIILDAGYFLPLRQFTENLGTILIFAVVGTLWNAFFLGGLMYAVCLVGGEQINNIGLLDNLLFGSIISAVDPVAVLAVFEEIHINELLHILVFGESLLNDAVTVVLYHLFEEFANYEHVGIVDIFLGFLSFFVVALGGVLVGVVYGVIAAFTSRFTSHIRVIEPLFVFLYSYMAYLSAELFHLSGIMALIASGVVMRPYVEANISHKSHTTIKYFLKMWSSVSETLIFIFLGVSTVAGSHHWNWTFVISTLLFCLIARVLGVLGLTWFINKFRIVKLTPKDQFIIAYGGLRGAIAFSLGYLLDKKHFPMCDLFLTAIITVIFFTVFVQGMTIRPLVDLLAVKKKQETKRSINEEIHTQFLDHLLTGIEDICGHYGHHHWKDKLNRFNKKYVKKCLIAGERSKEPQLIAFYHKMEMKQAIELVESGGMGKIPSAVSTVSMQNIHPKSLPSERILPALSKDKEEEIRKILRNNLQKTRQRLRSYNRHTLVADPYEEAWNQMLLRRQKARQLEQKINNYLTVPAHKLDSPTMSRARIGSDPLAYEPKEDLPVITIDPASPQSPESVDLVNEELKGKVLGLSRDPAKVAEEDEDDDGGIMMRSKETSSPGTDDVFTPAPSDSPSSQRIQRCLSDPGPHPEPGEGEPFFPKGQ

By IC50 is commonly meant the concentration at which inhibition is half-maximal. Regarding `Cc1cc(N2CC(c3ccccc3)CS2(=O)=O)c(S(C)(=O)=O)cc1C(=O)N=C(N)N` (stereo not shown) [Example 4, N-[4-(1,1-Dioxo-4-phenylisothiazolidin-2-yl)-5-methanesulfonyl-2-methylbenzoyl]guanidine, hydrochloride], the IC50 in data set [1] was determined as 0.006 µM. Take `Cc1cc(N2CC(c3ccc(F)cc3)CS2(=O)=O)c(S(C)(=O)=O)cc1C(=O)N=C(N)N` (single isomer, unassigned; enantiomer a) [Example 8, N-{4-[4-(4-Fluorophenyl)-1,1-dioxoisothiazolidin-2-yl]-5-methanesulfonyl-2-methlbenzoyl}guanidine, hydrochloride, enantiomer A]: the IC50 in data set [1] came out at 0.012 µM. As for `Cc1cc(N2CC(c3ccc(F)cc3)CS2(=O)=O)c(S(C)(=O)=O)cc1C(=O)N=C(N)N` (stereo not shown) [Example 7, N-{4-[4-(4-Fluorophenyl)-1,1-dioxoisothiazolidin-2-yl]-5-methanesulfonyl-2-methylbenzoyl}guanidine, hydrochloride], in data set [1], the 50% inhibitory concentration (IC50) stood at 0.019 µM. Consider `NC(N)=NC(=O)c1ccc(N2CCCCS2(=O)=O)c(C(F)(F)F)c1` [Example 14, N-[4-(1,1-Dioxo-1-[1,2]thiazinan-2-yl)-3-trifluoromethyl-benzoyl]guanidine], for which the IC50 in data set [1] came out at 0.013 µM. For `Cc1cc(N2CC(c3ccccc3)CCS2(=O)=O)c(S(C)(=O)=O)cc1C(=O)N=C(N)N` (stereo not shown) [Example 10, N-[4-(1,1-Dioxo-4-phenyl-1-[1,2]thiazinan-2-yl)-5-methanesulfonyl-2-methylbenzoyl]guanidine], the 50% inhibitory concentration (IC50) in data set [1] was 0.051 µM. For `Cc1cc(N2CCCS2(=O)=O)c(S(C)(=O)=O)cc1C(=O)N=C(N)N` [Example 1, N-[4-(1,1-Dioxoisothiazolidin-2-yl)-5-methanesulfonyl-2-methyl-benzoyl]guanidine], the IC50 in data set [1] is 0.038 µM. Still for that read-out and setting: under `Cc1cc(N2CCCCS2(=O)=O)c(S(C)(=O)=O)cc1C(=O)N=C(N)N` [Example 2, N-[4-(1,1-Dioxo-[1,2]thiazinan-2-yl)-5-methanesulfonyl-2-methylbenzoyl]guanidine] stands 0.144 µM. With `Cc1cc(N2CCCN(C3CC3)S2(=O)=O)c(S(C)(=O)=O)cc1C(=O)N=C(N)N` [Example 12, N-[4-(6-Cyclopropyl-1,1-dioxo-1-[1,2,6]thiadiazinan-2-yl)-5-methanesulfonyl-2-methlbenzoyl]guanidine], the IC50 in data set [1] amounted to 1.52 µM.

Regarding `NC(N)=NC(=O)c1ccc(N2CCCS2(=O)=O)c(C(F)(F)F)c1` [Example 13, N-[4-(1,1-Dioxo-1-isothiazolidin-2-yl)-3-trifluoromethyl-benzoyl]guanidine], the half-inhibitory concentration (IC50) in data set [1] worked out at 0.02 µM. For orientation: half-life means the time in which the quantity being followed falls by half. Turning to `CC(C)c1ccc(C(=O)N=C(N)N)cc1S(C)(=O)=O.CS(=O)(=O)O` [cariporide, reference compound], the half-life in data set [2] was 3.3 h. For `Cc1cc(N2CC(c3ccccc3)CS2(=O)=O)c(S(C)(=O)=O)cc1C(=O)N=C(N)N` (single isomer, unassigned; enantiomer b) [Example 6, N-[4-(1,1-Dioxo-4-phenylisothiazolidin-2-yl)-5-methanesulfonyl-2-methylbenzoyl]guanidine, hydrochloride, enantiomer B], the IC50 in data set [1] was found to be 0.045 µM. For the compound `Cc1cc(N2CCN(C3CC3)S2(=O)=O)c(S(C)(=O)=O)cc1C(=O)N=C(N)N` [Example 11, N-[4-(5-Cyclopropyl-1,1-dioxo-1-[1,2,5]thiadiazolidin-2-yl)-5-methanesulfonyl-2-methlbenzoyl]guanidine], the 50% inhibitory concentration (IC50) in data set [1] amounted to 0.113 µM. As for `Cc1cc(N2CC(c3ccccc3)CS2(=O)=O)c(S(C)(=O)=O)cc1C(=O)N=C(N)N` (single isomer, unassigned; enantiomer a) [Example 5, N-[4-(1,1-Dioxo-4-phenylisothiazolidin-2-yl)-5-methanesulfonyl-2-methylbenzoyl]guanidine, hydrochloride, enantiomer A], the concentration for half-maximal inhibition (IC50) in data set [1] is 0.013 µM. Take `Cc1cc(N2CC(c3ccc(F)cc3)CS2(=O)=O)c(S(C)(=O)=O)cc1C(=O)N=C(N)N.Cl` (single isomer, unassigned; enantiomer b) [Example 9, N-{4-[4-(4-Fluorophenyl)-1,1-dioxoisothiazolidin-2-yl]-5-methanesulfonyl-2-methylbenzoyl}guanidine, hydrochloride, enantiomer B]: the half-life in data set [2] is 4.6 h. For the same compound, the concentration for half-maximal inhibition (IC50) in data set [1] came out at 0.023 µM.

As to `Cc1cc(N2C(C)(C)CCS2(=O)=O)c(S(C)(=O)=O)cc1C(=O)N=C(N)N` [Example 3, N-[4-(3,3-Dimethyl-1,1-dioxoisothiazolidin-2-yl)-5-methanesulfonyl-2-methylbenzoyl]guanidine,], in data set [1], the IC50 is 0.195 µM.

The values are drawn from US7772262B2, “Substituted benzoylguanidines, method for production and use thereof as medicament or diagnostic and medicament comprising the same” (sanofi-aventis Deutschland GmbH, priority 2004, dated 2010).
